Assay: Potentiometric calcium titration with calcium-selective electrode (calcium binding / chelation)
Assay type: physicochemical
Conditions: Ca2+ binding; 50 mL of 200 ppm hardness solution at 25° C.; NH4Cl/NH4OH buffer pH=9.5, ionic strength 0.1M
Experimental: Calcium chloride dihydrate was purchased from Fisher Scientific. A stock solution of 0.01M […] (1000 ppm, hardness CaCO3) was prepared with distilled deionized water, and 0.03M NH4Cl/0.07M NH4OH buffer (pH=9.5, ionic strength of 0.1M). The later chemicals were obtained from Columbus Chemical Industries, Inc. Standard solution ranging from 200 ppm to 10 ppm was prepared by dilution of the stock solution with the buffer. A plot of the logarithm of calcium ion concentration vs the normalized potential was constructed prior to each titration (Rechnitz, G. A., et al., Anal. Chem. 40 696 (1968); and Nagarajan, M. K., et al., JAOCS 61 1475 (1984)). This was necessary to minimize the effect of signal fluctuations due to solution condition (ionic strength, pH, and the like). […]
The electrode was immersed in a 50 mL of 200 ppm hardness solution at 25° C., and the meter reading was taken while the solution was being stirred by magnet (Blay, J. A., et al., Anal. Lett. 4, 653 (1971)). The calcium binding solution of Compound II was added in small increments and the equilibrium-free calcium ion concentration were measured. When the meter reading indicated less than 10 ppm present in solution, the titration was stopped. […] Chelation constant (logK) of compound II was determined to be 4.23±0.09 according to the following equation [formula] […]

O=C(O)C(O)C(NCCCC[C@H](NC(C(=O)O)C(O)C(=O)O)C(=O)O)C(=O)O (stereo partly drawn) [compound II, 2N,6N-lysine-β-hydroxy disuccinic acid]
Chelation constant (logK): 4.23±0.09
